# Laboratory results published in patent EP4610269A1, “UROKINASE PLASMINOGEN ACTIVATOR SURFACE RECEPTOR (UPAR) LIGANDS FOR DIAGNOSTIC OR THERAPEUTIC USE” (3B Pharmaceuticals GmbH, priority 2024, dated 2025).
# *1 amine or outer side, *2 acyl side, *3 side chain or, on linkers, in order; H or OH if unused. Where a SMILES comes first, the peptide text is derived from it. Bridges are numbered along the chain shown (N, C = ends). [ ]: non-standard residue; d: D form. The star is where a group is joined. DOTA = O=C(O)CN1CCN(CC(=O)O)CCN(CC(=O)*)CCN(CC(=O)O)CC1; Pro(trans-4-F) = O=C(O)[C@@H]1C[C@@H](F)CN1; Pro(cis-4-F) = O=C(O)[C@@H]1C[C@H](F)CN1; Dopa = N[C@@H](Cc1ccc(O)c(O)c1)C(=O)O; NMeY = CN[C@@H](Cc1ccc(O)cc1)C(=O)O; NMeR = CN[C@@H](CCCNC(=N)N)C(=O)O; Hyp = O=C(O)[C@@H]1C[C@@H](O)CN1; Pentanoyl(4-Me) = CC(C)CCC(=O)*; Cit = NC(=O)NCCC[C@H](N)C(=O)O; Butoxycarbonyl = CCCCOC(=O)*; X9 = OC[C@H](CS[*:1])N[*:2]; Orn = NCCC[C@H](N)C(=O)O; Api = NC1(C(=O)O)CCNCC1; Nva = CCC[C@H](N)C(=O)O; Pentanoyl = CCCCC(=O)*; CO = O=C([*:1])[*:2]; Ahx = NCCCCCC(=O)O; NHBu = CCCCN*
# Experiments:
# human uPAR (uPAR-Fc) = molecular target: T1, human uPAR (uPAR-Fc) (Homo sapiens, UniProt Q03405); test: Surface plasmon resonance (SPR) assay, single cycle kinetics; type: binding; details: pKD category for uPAR SPR activity assay; uPAR-Fc on Protein A-Chip, 25°C; read-out: pKD CAT (converted)
# T1 construct: comprising amino acids Leu23-Arg303 according to UniProt entry Q03405.1; purchased R&D Systems 10378-UK-100
# T1 sequence (Q03405 23-303): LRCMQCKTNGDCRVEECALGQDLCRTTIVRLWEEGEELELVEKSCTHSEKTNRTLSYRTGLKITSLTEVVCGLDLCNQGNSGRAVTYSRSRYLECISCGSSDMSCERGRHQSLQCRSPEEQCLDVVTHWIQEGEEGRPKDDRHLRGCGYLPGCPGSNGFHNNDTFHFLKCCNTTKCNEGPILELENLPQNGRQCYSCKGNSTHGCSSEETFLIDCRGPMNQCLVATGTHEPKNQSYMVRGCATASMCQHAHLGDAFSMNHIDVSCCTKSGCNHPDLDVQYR
# Procedure, shortened: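 uPAR-Fc (Leu23-Arg303 extracellular domains, human IgG1 Fc) captured on Protein A chip to ~2000 RU; single-cycle kinetics at 25°C in HEPES running buffer pH 7.4 with 0.1% DMSO. KD from double-referenced sensorgrams fitted to 1:1 Langmuir model, reported as pKD.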
# [1] = molecular target: T2, uPAR-expressing HEC-265 human endometrial adenocarcinoma cells (Homo sapiens, UniProt Q03405); test: Competitive FACS binding assay; details: pIC50 category of FACS binding
# T2 construct: Cell surface uPAR-expressing HEC-265 human endometrial adenocarcinoma cells; host or cells: HEC-265
# T2 sequence (Q03405 23-335): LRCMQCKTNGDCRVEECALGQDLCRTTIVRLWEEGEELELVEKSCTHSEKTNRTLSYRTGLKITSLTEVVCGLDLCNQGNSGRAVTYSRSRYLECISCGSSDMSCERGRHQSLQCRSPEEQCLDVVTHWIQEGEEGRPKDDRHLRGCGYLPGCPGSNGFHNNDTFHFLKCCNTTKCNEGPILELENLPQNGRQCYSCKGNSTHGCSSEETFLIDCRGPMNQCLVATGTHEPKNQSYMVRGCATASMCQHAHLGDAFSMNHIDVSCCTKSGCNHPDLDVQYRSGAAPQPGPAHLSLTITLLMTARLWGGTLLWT
# Procedure, shortened: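 HEC-265 cells incubated 1 h at 4 °C with 10 nM biotinylated uPAR peptide tracer plus increasing test compound, then stained with APC-streptavidin on ice. Median APC fluorescence by flow cytometry; 4PL fit gives pIC50.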
Structure (SMILES),Kd (human uPAR (uPAR-Fc)) [nM],IC50 [1] [nM]
"CCCCOC(=O)N[C@H]1CSSC[C@@H](C(N)=O)NC(=O)[C@H](CCC)NC(=O)[C@H]([C@@H](C)CC)NC(=O)[C@@H]2C[C@@H](O)CN2C(=O)[C@@H]2C[C@H](F)CN2C(=O)[C@H](Cc2ccccc2)NC(=O)[C@H](Cc2ccc(O)c(O)c2)NC(=O)[C@H](CCCNC(=O)CN2CCN(CC(=O)O)CCN(CC(=O)O)CCN(CC(=O)O)CC2)NC(=O)[C@H]([C@@H](C)O)NC1=O [UPAR-280, Butoc-[Cys-Thr-Orn(DOTA)-Dopa-Phe-4Cfp-Hyp-Ile-Nva-Cys]-NH2] (Butoxycarbonyl-CT[Orn](DOTA)[Dopa]F[Pro(cis-4-F)][Hyp]I[Nva]C-NH2; disulfide 1-10)",< 1.58,≤ 10
"CCCCC(=O)N[C@H]1CSSC[C@@H](C(N)=O)NC(=O)[C@H](CCC)NC(=O)[C@H]([C@@H](C)CC)NC(=O)[C@H](CC(C)C)NC(=O)[C@@H]2CCCN2C(=O)[C@H](Cc2ccccc2)NC(=O)[C@H](Cc2ccc(O)cc2)NC(=O)[C@H](CCC(N)=O)NC(=O)[C@H](CCCNC(=N)N)NC1=O [UPAR-281, Pent-[Cys-Arg-Gln-Tyr-Phe-Pro-Leu-Ile-Nva-Cys]-NH2] (Pentanoyl-CRQYFPLI[Nva]C-NH2; disulfide 1-10)",< 1.58,≤ 10
"CCCCC(=O)N[C@H]1CSSC[C@@H](C(N)=O)NC(=O)[C@H](CCC)NC(=O)[C@H]([C@@H](C)CC)NC(=O)[C@@H]2C[C@@H](O)CN2C(=O)[C@@H]2CCCN2C(=O)[C@H](Cc2ccccc2)NC(=O)[C@H](Cc2ccc(O)cc2)NC(=O)[C@H](CCCCNC(=O)CN2CCN(CC(=O)O)CCN(CC(=O)O)CCN(CC(=O)O)CC2)NC(=O)[C@H](CC(N)=O)NC1=O [UPAR-283, Pent-[Cys-Asn-Lys(DOTA)-Tyr-Phe-Pro-Hyp-Ile-Nva-Cys]-NH2] (Pentanoyl-CNK(DOTA)YFP[Hyp]I[Nva]C-NH2; disulfide 1-10)",< 1.58,≤ 10
"CCCCOC(=O)N[C@H]1CSSC[C@@H](C(N)=O)NC(=O)[C@H](CCC)NC(=O)[C@H]([C@@H](C)CC)NC(=O)[C@@H]2C[C@@H](O)CN2C(=O)[C@@H]2C[C@@H](O)CN2C(=O)[C@H](Cc2ccccc2)NC(=O)[C@H](Cc2ccc(O)c(O)c2)NC(=O)[C@H](CCCCNC(=O)CN2CCN(CC(=O)O)CCN(CC(=O)O)CCN(CC(=O)O)CC2)NC(=O)[C@H]([C@@H](C)O)NC1=O [UPAR-284, Butoc-[Cys-Thr-Lys(DOTA)-Dopa-Phe-Hyp-Hyp-Ile-Nva-Cys]-NH2] (Butoxycarbonyl-CTK(DOTA)[Dopa]F[Hyp][Hyp]I[Nva]C-NH2; disulfide 1-10)",< 1.58,≤ 10
"CC[C@H](C)[C@@H]1NC(=O)[C@@H](C)NC(=O)[C@@H]2CCCN2C(=O)[C@H](Cc2ccccc2)NC(=O)[C@H](Cc2ccc(O)cc2)N(C)C(=O)[C@H](CCC(N)=O)NC(=O)[C@H](CCCNC(N)=O)NC(=O)[C@@H](NC(=O)CCC(C)C)CSSC[C@@H](C(N)=O)NC(=O)[C@H](CC(C)C)NC1=O [UPAR-285, iHex-[Cys-Cit-Gln-Nmy-Phe-Pro-ala-Ile-Leu-Cys]-NH2] ({Pentanoyl(4-Me)}-C[Cit]Q[NMeY]FP[dA]ILC-NH2; disulfide 1-10)",> 100,≥ 126
"CCCCNC(=O)N[C@H]1CSSC[C@@H](C(N)=O)NC(=O)[C@H](CC(C)C)NC(=O)[C@H]([C@@H](C)CC)NC(=O)[C@@H](C)NC(=O)[C@@H]2CCCN2C(=O)[C@H](Cc2ccccc2)NC(=O)[C@H](Cc2ccc(O)cc2)NC(=O)[C@H](CCC(N)=O)NC(=O)[C@H](CCCNC(N)=O)NC1=O [UPAR-286, nBuCAyl-[Cys-Cit-Gln-Tyr-Phe-Pro-ala-Ile-Leu-Cys]-NH2] ({NHBu-CO}-C[Cit]QYFP[dA]ILC-NH2; disulfide 1-10)",< 1.58,≤ 10
"CC[C@H](C)[C@@H]1NC(=O)[C@@H](C)NC(=O)[C@@H]2CCCN2C(=O)[C@H](Cc2ccccc2)NC(=O)[C@H](Cc2ccc(O)cc2)NC(=O)[C@H](CCC(N)=O)NC(=O)[C@H](CCCNC(=N)N)N(C)C(=O)[C@@H](NC(=O)CCC(C)C)CSSC[C@@H](C(N)=O)NC(=O)[C@H](CC(C)C)NC1=O [UPAR-287, iHex-[Cys-Nmr-Gln-Tyr-Phe-Pro-ala-Ile-Leu-Cys]-NH2] ({Pentanoyl(4-Me)}-C[NMeR]QYFP[dA]ILC-NH2; disulfide 1-10)",> 100,≥ 126
"CCCCC(=O)N[C@H]1CSSC[C@@H](C(N)=O)NC(=O)[C@H](CCC)NC(=O)[C@H]([C@@H](C)CC)NC(=O)[C@@H]2C[C@@H](O)CN2C(=O)[C@@H]2CCCN2C(=O)[C@H](Cc2ccccc2)NC(=O)[C@H](Cc2ccc(O)cc2)NC(=O)C2(CCN(C(=O)CN3CCN(CC(=O)O)CCN(CC(=O)O)CCN(CC(=O)O)CC3)CC2)NC(=O)[C@H]([C@@H](C)O)NC1=O [UPAR-288, Pent-[Cys-Thr-Apc(DOTA)-Tyr-Phe-Pro-Hyp-Ile-Nva-Cys]-NH2] (Pentanoyl-CT[Api](DOTA)YFP[Hyp]I[Nva]C-NH2; disulfide 1-10)",< 1.58,≤ 10
"CCCCOC(=O)N[C@H]1CSSC[C@@H](C(N)=O)NC(=O)[C@H](CCC)NC(=O)[C@H]([C@@H](C)CC)NC(=O)[C@@H]2C[C@@H](F)CN2C(=O)[C@@H]2CCCN2C(=O)[C@H](Cc2ccccc2)NC(=O)[C@H](Cc2ccc(O)cc2)NC(=O)[C@H](CCCCNC(=O)CN2CCN(CC(=O)O)CCN(CC(=O)O)CCN(CC(=O)O)CC2)NC(=O)[C@H]([C@@H](C)O)NC1=O [UPAR-289, Butoc-[Cys-Thr-Lys(DOTA)-Tyr-Phe-Pro-4Tfp-Ile-Nva-Cys]-NH2] (Butoxycarbonyl-CTK(DOTA)YFP[Pro(trans-4-F)]I[Nva]C-NH2; disulfide 1-10)",< 1.58,≤ 10
"CC[C@H](C)[C@@H]1NC(=O)[C@H](C)NC(=O)[C@@H]2CCCN2C(=O)[C@H](Cc2ccccc2)NC(=O)[C@H](Cc2ccc(O)cc2)NC(=O)[C@H](CCC(N)=O)NC(=O)[C@H](CCCNC(=N)N)NC(=O)[C@@H](NC(=O)[C@H](CC(C)C)NC(=O)[C@H](CC(=O)O)NC(C)=O)CSSC[C@@H](C(N)=O)NC(=O)[C@H](CC(C)C)NC1=O [UPAR-290, Ac-Asp-Leu-[Cys-Arg-Gln-Tyr-Phe-Pro-Ala-Ile-Leu-Cys]-NH2] (Ac-DLCRQYFPAILC-NH2; disulfide 3-12)",< 1.58,≤ 10
"CC[C@H](C)[C@@H]1NC(=O)[C@@H](C)NC(=O)[C@@H]2CCCN2C(=O)[C@H](Cc2ccccc2)NC(=O)[C@H](Cc2ccc(O)cc2)NC(=O)[C@H](CCC(N)=O)NC(=O)[C@H](CCCNC(=N)N)NC(=O)[C@@H](NC(=O)[C@H](CC(C)C)NC(=O)CCCCCNC(=O)CN2CCN(CC(=O)O)CCN(CC(=O)O)CCN(CC(=O)O)CC2)CSSC[C@@H](C(N)=O)NC(=O)[C@H](CC(C)C)NC1=O [UPAR-291, DOTA-Ahx-Leu-[Cys-Arg-Gln-Tyr-Phe-Pro-ala-Ile-Leu-Cys]-NH2] ({DOTA-Ahx}-LCRQYFP[dA]ILC-NH2; disulfide 2-11)",< 1.58,≤ 10
"CCCCC(=O)N[C@H]1CSSC[C@@H](CO)NC(=O)[C@H](CCC)NC(=O)[C@H]([C@@H](C)CC)NC(=O)[C@@H]2C[C@@H](O)CN2C(=O)[C@@H]2CCCN2C(=O)[C@H](Cc2ccccc2)NC(=O)[C@H](Cc2ccc(O)cc2)NC(=O)[C@H](CCC(N)=O)NC(=O)[C@H](CCCNC(N)=O)NC1=O [UPAR-292, Pent-[Cys-Cit-Gln-Tyr-Phe-Pro-Hyp-Ile-Nva-Cysol]-OH] (Pentanoyl-C[Cit]QYFP[Hyp]I[Nva]; linker 1-C via X9)",< 1.58,≤ 10
